Data from patent publication US20200290950A1, “ALKAMIDE COMPOUNDS AND USES THEREOF” (NORTH CAROLINA STATE UNIVERSITY, priority 2017, published 2020).

Assays:
[1] = target: T1, TRPA1 (Mus musculus, UniProt Q8BLA8); test: Calcium response of DRG neurons to mustard (allyl isothiocyanate); assay type: cell-based; conditions: cultured DRG neurons, fluorescence microscopy
T1 construct: The receptors TRPA1 and TRPV1 are expressed on neurons; from tissue; host or cells: primary dorsal root ganglion neurons from mice
Description: FIG. 11. Calcium response from DRG sensory neurons to alkamide of transient receptors. Mustard a TRPA1-receptor agonist activates DRG neurons in gray (A) and capsaicin, an agonist for TRPV1-receptors in the DRG neurons in red (B). Ligand A15 inhibits both TRPA1 and TRPV1 receptors activation in orange; however, 85Y a synthetic ligand only reduces the inhibition of TRPA1 but not TRPV1 receptors in blue. Total number of neurons (n)=135-145; p≤0.05.
Several different model systems were utilized for these experiments. In one model, dorsal root ganglia were obtained from mice and the neurons cultured in vitro. The neurons were then stimulated in the presence/absence of A15 and YM8-85 and the calcium responses monitored by fluorescence microscopy. In the second model, the alkamides were applied to mouse skin in mineral oil. The reactions of these mice to heat, cold, and tactile stimulation was then compared with mice that had not received treatment with A15. […] Alkamides were applied to sensitized animals and then ear swelling and bouts of scratching were monitored.
In vitro DRG neuron responses. […] Neurons were stimulated with mustard (allyl isothiocyanate) (A) an agonist for the receptor TRPA-1 or capsaicin (B) an agonist for the receptor TRPV-1 and calcium responses were measured in individual neurons by fluorescence microscopy. […]

[2] = test system: BMMCs; test: Fluo-4 calcium assay, BMMCs; assay type: cell-based, mouse
Experimental: FIGS. 3A-3H. A15 inhibits calcium influx in RBL-2H3 cells and BMMCs. RBL-2H3 cells (FIGS. 3A-3D) and BMMCs (FIGS. 3E-3H) were plated and incubated overnight prior to treatments. For DNP-BSA treatments, overnight incubation also included 1 μg/mL IgE anti-DNP. Prior to stimulation, cells were washed and loaded with the fluorescent, calcium-sensitive dye fluo-4 AM using the Fluo-4 AM Direct™ Calcium Assay Kit and fluorescence was measured on a microplate reader. Calcium influx was triggered in all experiments using either 1 μM A23187 or 50 ng/mL DNP-BSA, as indicated. Bar graphs represent the means±SEM of the Δ in RFU's at 1 min post-A23187- or DNP-BSA-stimulation from 3 independent experiments (FIGS. 3B, 3D, 3F, 3H). Statistical analysis was performed using a one-way ANOVA with Dunnett's post-hoc test, *p<0.05, **p<0.01, ***p<0.001.
RBL-2H3, BMMC, RAW 264.7, or Jurkat cells were plated in clear-bottom, black, 96-well plates (BioExpress, Kaysville, Utah) and incubated overnight with media only or media containing IgE anti-DNP. Cells were loaded with the calcium-sensitive dye fluo-4 AM using the Fluo-4 Direct™ Calcium Assay Kit (Thermo Fisher Scientific) according to the manufacturer's instructions by incubating at 37° C. for 30 min followed by 30 min at room temperature. Prior to stimulation, baseline fluorescent readings were measured from triplicate wells in 5 s intervals for 1 min using a Synergy HT microplate reader with 485/20 nm excitation and 528/20 nm emission filters. Cells were then treated with either 1 μM A23187 or 50 ng/mL DNP-BSA prepared in calcium- and magnesium-containing or calcium- and magnesium-free HBSS with 20 mM HEPES, and fluorescence was measured in 10 s intervals for 2 min. The final concentration of ethanol was 0.25% in these assays. The average baseline fluorescence of each well was subtracted from the stimulated fluorescent values to calculate the change (Δ) in RFU's and graphed as shown.

T1 sequence (Q8BLA8 whole entry): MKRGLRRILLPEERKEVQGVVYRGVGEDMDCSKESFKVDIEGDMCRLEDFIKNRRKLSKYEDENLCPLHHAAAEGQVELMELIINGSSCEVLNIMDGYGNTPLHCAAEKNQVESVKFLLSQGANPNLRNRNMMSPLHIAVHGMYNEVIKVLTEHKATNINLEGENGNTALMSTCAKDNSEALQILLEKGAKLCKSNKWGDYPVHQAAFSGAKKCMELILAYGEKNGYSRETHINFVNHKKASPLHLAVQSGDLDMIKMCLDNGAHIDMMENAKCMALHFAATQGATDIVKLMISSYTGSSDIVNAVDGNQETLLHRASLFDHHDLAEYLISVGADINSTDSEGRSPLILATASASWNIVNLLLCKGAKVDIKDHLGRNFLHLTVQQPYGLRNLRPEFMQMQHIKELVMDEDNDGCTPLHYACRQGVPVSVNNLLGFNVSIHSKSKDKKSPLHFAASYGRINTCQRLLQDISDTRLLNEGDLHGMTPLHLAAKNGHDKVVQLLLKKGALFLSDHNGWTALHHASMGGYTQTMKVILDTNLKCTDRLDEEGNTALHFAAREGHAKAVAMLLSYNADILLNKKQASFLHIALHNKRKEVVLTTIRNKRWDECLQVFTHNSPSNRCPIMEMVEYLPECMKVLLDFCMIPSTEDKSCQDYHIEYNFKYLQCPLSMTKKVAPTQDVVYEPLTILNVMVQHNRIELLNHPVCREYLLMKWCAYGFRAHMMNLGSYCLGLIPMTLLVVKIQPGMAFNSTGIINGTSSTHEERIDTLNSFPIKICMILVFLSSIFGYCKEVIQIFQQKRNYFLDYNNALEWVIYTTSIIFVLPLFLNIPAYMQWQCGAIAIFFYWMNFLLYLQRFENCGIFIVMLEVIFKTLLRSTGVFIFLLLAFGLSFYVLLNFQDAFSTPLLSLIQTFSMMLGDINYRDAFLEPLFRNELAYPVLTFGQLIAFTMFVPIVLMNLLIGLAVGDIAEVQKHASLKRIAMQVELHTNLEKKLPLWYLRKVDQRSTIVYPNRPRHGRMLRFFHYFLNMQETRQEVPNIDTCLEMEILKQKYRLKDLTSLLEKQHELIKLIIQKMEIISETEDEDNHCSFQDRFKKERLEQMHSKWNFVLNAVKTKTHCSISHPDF

DRG neuron calcium response to mustard (TRPA1 agonist) [1]: inhibit
SMILES: CCCCCCC/C=C/C=C/C(=O)NCC(C)C [A15, (2E,4E)-N-Isobutyldodeca-2,4-dienamide]
calcium response ([2]; BMMCs treated with A23187): blocked the calcium response | calcium response ([2]; BMMCs treated with IgE anti-DNP and DNP-BSA): blocked the calcium response | calcium response to compound itself ([2]; BMMCs, A15 alone): did not cause a calcium response
